Experiments:
[1] = target: Histone deacetylase 4 (Homo sapiens) (UniProt P56524); details: 100 uM
[2] = target: Histone deacetylase (Homo sapiens) (UniProt Q13547+O15379+Q9UBN7+Q92769+Q9UQL6+Q8WUI4+Q9BY41+Q96DB2+P56524+Q9UKV0+Q969S8); details: HeLa, 100 uM
[3] = target: Histone deacetylase 4 (Homo sapiens) (UniProt P56524); details: 50 uM
[4] = target: Histone deacetylase 2 (Homo sapiens) (UniProt Q92769); details: HEK293; 100 uM
[5] = target: Histone deacetylase 3 (Homo sapiens) (UniProt O15379); details: HEK293; 100 uM
[6] = target: T1, Histone deacetylase 7 (Homo sapiens) (UniProt Q8WUI4); details: 100 uM
T1 sequence (whole entry): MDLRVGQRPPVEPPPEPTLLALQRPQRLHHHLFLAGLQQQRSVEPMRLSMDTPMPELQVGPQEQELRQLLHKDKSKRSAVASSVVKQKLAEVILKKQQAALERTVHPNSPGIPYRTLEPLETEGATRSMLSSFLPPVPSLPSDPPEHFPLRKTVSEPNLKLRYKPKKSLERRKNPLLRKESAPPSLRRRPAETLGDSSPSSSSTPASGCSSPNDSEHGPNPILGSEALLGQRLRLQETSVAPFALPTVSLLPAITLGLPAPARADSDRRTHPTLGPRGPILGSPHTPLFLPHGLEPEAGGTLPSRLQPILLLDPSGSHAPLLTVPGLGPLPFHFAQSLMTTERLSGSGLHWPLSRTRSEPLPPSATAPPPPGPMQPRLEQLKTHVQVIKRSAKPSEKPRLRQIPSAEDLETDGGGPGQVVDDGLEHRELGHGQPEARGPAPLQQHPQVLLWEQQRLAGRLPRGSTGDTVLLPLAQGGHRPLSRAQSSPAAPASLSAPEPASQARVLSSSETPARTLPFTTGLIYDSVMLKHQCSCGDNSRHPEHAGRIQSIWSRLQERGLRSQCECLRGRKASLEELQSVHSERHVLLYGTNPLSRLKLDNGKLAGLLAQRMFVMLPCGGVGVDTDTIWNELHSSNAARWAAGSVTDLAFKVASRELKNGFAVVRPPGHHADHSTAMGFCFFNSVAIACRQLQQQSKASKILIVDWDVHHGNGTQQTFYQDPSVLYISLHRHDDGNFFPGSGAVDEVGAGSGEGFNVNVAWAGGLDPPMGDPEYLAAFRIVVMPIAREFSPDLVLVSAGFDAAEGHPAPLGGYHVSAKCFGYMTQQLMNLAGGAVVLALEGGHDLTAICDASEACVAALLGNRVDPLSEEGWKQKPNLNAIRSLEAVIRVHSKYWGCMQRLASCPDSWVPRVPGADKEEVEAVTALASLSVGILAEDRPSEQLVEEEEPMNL

[7] = target: Histone deacetylase 1 (Homo sapiens) (UniProt Q13547); details: HEK293; 50 uM
[8] = target: Histone deacetylase 2 (Homo sapiens) (UniProt Q92769); details: HEK293; 50 uM
[9] = target: Histone deacetylase 3 (Homo sapiens) (UniProt O15379); details: HEK293; 50 uM

Sequence of Histone deacetylase 3 (Homo sapiens) (O15379 whole entry): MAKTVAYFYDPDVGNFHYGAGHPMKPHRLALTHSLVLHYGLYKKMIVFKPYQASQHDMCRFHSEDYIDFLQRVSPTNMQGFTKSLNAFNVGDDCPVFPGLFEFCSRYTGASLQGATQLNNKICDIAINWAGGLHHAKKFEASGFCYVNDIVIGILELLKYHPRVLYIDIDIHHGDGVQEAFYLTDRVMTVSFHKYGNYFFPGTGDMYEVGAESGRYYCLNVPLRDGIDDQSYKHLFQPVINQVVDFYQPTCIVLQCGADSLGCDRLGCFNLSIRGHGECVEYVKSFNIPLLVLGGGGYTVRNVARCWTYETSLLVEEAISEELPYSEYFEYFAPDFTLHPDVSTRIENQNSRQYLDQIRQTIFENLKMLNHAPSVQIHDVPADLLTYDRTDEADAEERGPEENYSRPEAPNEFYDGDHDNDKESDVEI
Sequence of Histone deacetylase 2 (Homo sapiens) (Q92769 whole entry): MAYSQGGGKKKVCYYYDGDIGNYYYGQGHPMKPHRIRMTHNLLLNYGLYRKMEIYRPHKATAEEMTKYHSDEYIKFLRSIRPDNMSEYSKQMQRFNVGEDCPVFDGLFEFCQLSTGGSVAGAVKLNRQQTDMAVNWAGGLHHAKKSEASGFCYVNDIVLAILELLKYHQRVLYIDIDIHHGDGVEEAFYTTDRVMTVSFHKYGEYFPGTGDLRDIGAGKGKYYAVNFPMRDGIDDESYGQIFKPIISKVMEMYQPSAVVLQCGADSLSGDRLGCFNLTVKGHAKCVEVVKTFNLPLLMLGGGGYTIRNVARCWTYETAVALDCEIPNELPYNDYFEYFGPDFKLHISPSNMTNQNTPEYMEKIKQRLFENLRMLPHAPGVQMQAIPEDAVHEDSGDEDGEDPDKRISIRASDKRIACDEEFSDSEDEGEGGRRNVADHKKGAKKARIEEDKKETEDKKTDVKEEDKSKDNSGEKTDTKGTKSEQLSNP
Sequence of Histone deacetylase 4 (Homo sapiens) (P56524 whole entry): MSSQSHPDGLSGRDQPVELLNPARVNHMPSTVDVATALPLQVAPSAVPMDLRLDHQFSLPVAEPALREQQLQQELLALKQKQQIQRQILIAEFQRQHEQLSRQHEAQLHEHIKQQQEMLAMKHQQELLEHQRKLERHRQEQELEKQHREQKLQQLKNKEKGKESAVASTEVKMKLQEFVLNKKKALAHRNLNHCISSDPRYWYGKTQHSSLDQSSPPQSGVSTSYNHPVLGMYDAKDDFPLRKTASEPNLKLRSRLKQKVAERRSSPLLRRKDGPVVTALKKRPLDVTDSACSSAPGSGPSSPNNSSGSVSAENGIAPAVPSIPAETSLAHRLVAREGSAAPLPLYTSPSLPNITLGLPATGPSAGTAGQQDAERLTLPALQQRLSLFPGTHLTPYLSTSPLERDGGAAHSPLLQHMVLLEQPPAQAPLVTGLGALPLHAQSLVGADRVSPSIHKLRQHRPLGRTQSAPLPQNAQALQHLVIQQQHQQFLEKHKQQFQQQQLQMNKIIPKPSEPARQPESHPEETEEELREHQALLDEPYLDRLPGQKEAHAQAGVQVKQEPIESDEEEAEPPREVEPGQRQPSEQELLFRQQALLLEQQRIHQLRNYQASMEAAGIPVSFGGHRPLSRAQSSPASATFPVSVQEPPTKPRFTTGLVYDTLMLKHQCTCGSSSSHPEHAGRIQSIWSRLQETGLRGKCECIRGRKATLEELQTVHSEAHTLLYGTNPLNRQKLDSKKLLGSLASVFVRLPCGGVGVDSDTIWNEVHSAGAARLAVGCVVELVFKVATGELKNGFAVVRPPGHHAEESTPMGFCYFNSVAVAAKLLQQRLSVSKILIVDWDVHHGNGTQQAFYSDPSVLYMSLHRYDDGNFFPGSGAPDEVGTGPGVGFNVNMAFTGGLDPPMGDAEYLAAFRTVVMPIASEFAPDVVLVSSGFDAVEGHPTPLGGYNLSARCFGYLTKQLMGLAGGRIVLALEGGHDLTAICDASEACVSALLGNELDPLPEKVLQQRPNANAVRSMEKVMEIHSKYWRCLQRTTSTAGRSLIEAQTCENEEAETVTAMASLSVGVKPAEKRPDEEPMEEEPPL
Sequence of Histone deacetylase 1 (Homo sapiens) (Q13547 whole entry): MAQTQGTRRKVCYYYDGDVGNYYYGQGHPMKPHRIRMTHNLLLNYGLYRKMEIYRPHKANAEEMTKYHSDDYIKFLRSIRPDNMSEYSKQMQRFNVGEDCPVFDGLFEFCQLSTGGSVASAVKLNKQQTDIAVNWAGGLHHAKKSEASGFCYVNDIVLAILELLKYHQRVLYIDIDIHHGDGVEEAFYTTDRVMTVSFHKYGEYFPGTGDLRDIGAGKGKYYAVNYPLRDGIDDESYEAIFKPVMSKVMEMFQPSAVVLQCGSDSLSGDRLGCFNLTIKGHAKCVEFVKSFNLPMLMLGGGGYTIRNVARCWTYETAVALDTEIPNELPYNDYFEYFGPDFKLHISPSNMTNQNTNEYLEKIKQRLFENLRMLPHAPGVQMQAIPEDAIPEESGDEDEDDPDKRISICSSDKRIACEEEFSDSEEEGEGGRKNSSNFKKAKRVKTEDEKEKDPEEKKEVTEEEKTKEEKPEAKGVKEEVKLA

Question: `C[C@H](O)C(=O)CCCCC[C@@H]1NC(=O)[C@H]2CCCN2C(=O)[C@H](Cc2ccccc2)NC(=O)[C@H](Cc2c[nH]c3ccccc23)NC1=O` was tested. Which inhibition [1] did it give?
Answer: 50%

Question: Which inhibition [2] does the source give for `O=C(O)CC/C=C\C[C@@H]1NC(=O)[C@H](Cc2c[nH]c3ccccc23)NC(=O)[C@H]2CCCN2C(=O)[C@H](Cc2c[nH]c3ccccc23)NC1=O` here?
Answer: 30%

Question: Which inhibition [3] does the source give for `O=C(O)CC/C=C\C[C@@H]1NC(=O)[C@H]2CCCN2C(=O)[C@H](Cc2ccccc2)NC(=O)[C@H](Cc2c[nH]c3ccccc23)NC1=O` here?
Answer: 37%

Question: How did the inhibition [4] turn out when `O=C(CCCCC[C@@H]1NC(=O)[C@H](Cc2c[nH]c3ccccc23)NC(=O)[C@H]2CCCN2C(=O)[C@H](Cc2c[nH]c3ccccc23)NC1=O)NO` was run?
Answer: 34%

Question: And the inhibition [5]?
Answer: 23.5%

Question: And the inhibition [6]?
Answer: 48.5%

Question: Which inhibition [7] does the source give for `O=C(CCCCC[C@@H]1NC(=O)[C@H]2CCCN2C(=O)[C@H](Cc2ccccc2)NC(=O)[C@H](Cc2c[nH]c3ccccc23)NC1=O)NO` here?
Answer: 42%

Question: And the inhibition [8]?
Answer: 30%

Question: What about the inhibition [9] of the same molecule?
Answer: 14.7%

From ChEMBL document CHEMBL1158553, “Synthesis and biological activity of cyclotetrapeptide analogues of the natural HDAC inhibitor FR235222” (Bioorg Med Chem, 2010)
